Results on 2 compounds are retold here after US20240294467A1, “USP9X Inhibitors” (ProDeg, LLC, priority 2021, published 2024).

For one experiment, the system named is BT-549. Put plainly: ONCOLINES Profiler proliferation. It counts as cell-based, human. From the text: (§1) The compounds were profiled on an ONCOLINES™ Profiler (Netherlands Translational Research Center) assayed with 66 cancer cell lines to determine if they were capable of inhibiting the proliferation of these cancer cells.
To further evaluate potency of the compounds, they were compared with the USP9X inhibitor WP 1130 by screening both the compounds and WP1130 on a 66-cancer cell line panel ONCOLINES™ Profiler.

A further experiment concerns U937 cells. Put plainly: WST-1 cell viability assay. It counts as cell-based. The note with it: for IC50: Homo sapiens, U-937, 72-hour treatment. As to the method:
(§2) Compound Compound 9A was tested for the ability to inhibit the proliferation of Mia-Paca-2 pancreatic cancer cells. Mia-Paca-2 and MDA-MB-231 cells were seeded into the wells of a 96 well tissue culture plate in complete medium (10% fetal calf serum) and incubated overnight at 37° C./5% CO2). The medium was exchanged for fresh medium containing varying concentrations of Compound 9A and the plate was incubated for 72 hours at 37° C./5% CO2. The viability of cells at the end of this incubation was assessed with the WST-1 reagent. To 10 ml of warm (37° C.) complete medium, 1 ml WST-1 reagent was added. The medium from the wells of the plate with the Mia-Paca-2 cells was removed and replaced with 100 μL of the WST-1 reagent in complete medium. The plate was incubated at 37 37° C./5% CO2. At timed intervals the absorbance at 450 nm was determined for each well in a UVNis plate reader. For each well the slope of the plot of the absorbance 450 nm vs time was determined. The readings were normalized to that of the wells for the untreated control and a dose-response curve was plotted. A fit to the data was made from a four parameter, variable slope program (GraphPad Prism) and the IC50 was determined.
The effect of Compound 7A on U937 cells was assessed using the same experiment described in the Inhibitory Activities against the Proliferation of Mia-Paca-2 and Other Cancer Cells section above. In response to treatment with Compound 7A, proliferation of U937 leukemia cells was inhibited and induced apoptosis was obsessed by trypan blue staining.
U937 cells were treated with the Bcl-2/Bcl-xL inhibitor ABT737 72 hours at varying concentrations and underwent western blot analysis.
Background: Tetrazolium assays rely on reduction of a dye to a coloured formazan, in cell work by metabolically active cells.

In another experiment the test system is PA-1. Put plainly: ONCOLINES Profiler proliferation. It counts as cell-based. The note with it: Homo sapiens; PA-1, ovary teratocarcinoma.
Source text: as §1

In another experiment the test system is VA-ES-BJ. Put plainly: ONCOLINES Profiler proliferation. It counts as cell-based. The note with it: epithelioid carcinoma, bone.
Source text: as §1

The test system of a further experiment is NCI-H460. Put plainly: ONCOLINES Profiler proliferation. It counts as cell-based. The note with it: Homo sapiens; NCI-H460, large cell lung carcinoma.
Source text: as §1

For a further experiment, the system named is SK-N-AS. Put plainly: ONCOLINES Profiler proliferation. It counts as cell-based. The note with it: Homo sapiens, neuroblastoma.
Source text: as §1

A further experiment concerns A388. Put plainly: ONCOLINES Profiler proliferation. It counts as cell-based. The settings on record: A388, epidermal carcinoma.
Source text: as §1

Another experiment deals with MIA PaCa-2. Put plainly: ONCOLINES Profiler proliferation. It counts as cell-based. The settings on record: Homo sapiens; MIA PaCa-2, pancreatic ductal carcinoma.
Source text: as §1

The subject of the next experiment is DoTc2 4510. Put plainly: ONCOLINES Profiler proliferation. It counts as cell-based. The settings on record: Homo sapiens; DoTc2 4510, cervix carcinoma.
Source text: as §1

The next experiment has as its system HCT-116. Put plainly: ONCOLINES Profiler proliferation. It counts as cell-based. The note with it: Homo sapiens; HCT-116, colon carcinoma.
Source text: as §1

The subject of experiment [1] is malignant melanoma cell line MWo. Put plainly: ONCOLINES Profiler proliferation. It counts as cell-based.
Source text: as §1

Another experiment deals with BT-549 cancer cells. Put plainly: WST-1 cell viability assay. It counts as cell-based, human. The settings on record: BT-549 cells. On the procedure: as §2
The same procedures were also applied to the compounds Compound 7A, Compound 6A, and Compound 8A to test their inhibitory activities against RKO colon, Mia-Paca-2 pancreatic and BT-549 cancer cells.

For the next experiment, the target named is USP7 (Homo sapiens (Human), UniProt Q93009). Put plainly: DUB selectivity panel using ubiquitin-AMC. It counts as biochemical. The text has this:
(§3) Compounds were screened for DUB inhibitory and apoptotic activity against other deubiquitylases in a DUB selectivity panel using ubiquitin-AMC (BPS Bioscience Inc.).

Another experiment concerns the target VCPIP (Homo sapiens (Human), UniProt Q96JH7). Put plainly: DUB selectivity panel using ubiquitin-AMC. It counts as biochemical. The settings on record: 5 μM compound, 500 nM Ubiquitin-AMC.
Source text: as §3

A further experiment has as its target USP28 (Homo sapiens (Human), UniProt Q96RU2). Put plainly: DUB selectivity panel using ubiquitin-AMC. It counts as biochemical.
Source text: as §3

A further experiment concerns the target CYLD (Homo sapiens (Human), UniProt Q9NQC7). Put plainly: DUB selectivity panel using ubiquitin-AMC. It counts as biochemical. The settings on record: 5 μM compound, 500 nM Ubiquitin-AMC.
Source text: as §3

Another experiment has as its target USP15 (Homo sapiens (Human), UniProt Q9Y4E8). Put plainly: DUB selectivity panel using ubiquitin-AMC. It counts as biochemical. The settings on record: 5 μM compound, 500 nM Ubiquitin-AMC.
Source text: as §3

The next experiment has as its target USP2 (Homo sapiens (Human), UniProt O75604). Put plainly: DUB selectivity panel using ubiquitin-AMC. It counts as biochemical.
Source text: as §3

The target in another experiment is UCH-L3 (Homo sapiens (Human), UniProt P15374). Put plainly: DUB selectivity panel using ubiquitin-AMC. It counts as biochemical. The note with it: 5 μM compound, 500 nM Ubiquitin-AMC.
UCH-L3, sequence (P15374 whole entry): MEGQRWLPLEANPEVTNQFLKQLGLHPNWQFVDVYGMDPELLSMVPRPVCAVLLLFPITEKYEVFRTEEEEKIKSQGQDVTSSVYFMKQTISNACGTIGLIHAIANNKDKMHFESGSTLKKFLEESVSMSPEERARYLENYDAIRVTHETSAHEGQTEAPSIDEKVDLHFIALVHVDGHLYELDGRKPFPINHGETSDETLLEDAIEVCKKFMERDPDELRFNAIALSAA
Source text: as §3

Another experiment has as its target USP25 (Homo sapiens (Human), UniProt Q9UHP3). Put plainly: DUB selectivity panel using ubiquitin-AMC. The settings on record: 5 μM compound, 500 nM Ubiquitin-AMC. It counts as biochemical.
Source text: as §3

A further experiment deals with USP13 (Homo sapiens (Human), UniProt Q92995). Put plainly: DUB selectivity panel using ubiquitin-AMC. The settings on record: 5 μM compound, 500 nM Ubiquitin-AMC. It counts as biochemical.
USP13, sequence (Q92995 whole entry): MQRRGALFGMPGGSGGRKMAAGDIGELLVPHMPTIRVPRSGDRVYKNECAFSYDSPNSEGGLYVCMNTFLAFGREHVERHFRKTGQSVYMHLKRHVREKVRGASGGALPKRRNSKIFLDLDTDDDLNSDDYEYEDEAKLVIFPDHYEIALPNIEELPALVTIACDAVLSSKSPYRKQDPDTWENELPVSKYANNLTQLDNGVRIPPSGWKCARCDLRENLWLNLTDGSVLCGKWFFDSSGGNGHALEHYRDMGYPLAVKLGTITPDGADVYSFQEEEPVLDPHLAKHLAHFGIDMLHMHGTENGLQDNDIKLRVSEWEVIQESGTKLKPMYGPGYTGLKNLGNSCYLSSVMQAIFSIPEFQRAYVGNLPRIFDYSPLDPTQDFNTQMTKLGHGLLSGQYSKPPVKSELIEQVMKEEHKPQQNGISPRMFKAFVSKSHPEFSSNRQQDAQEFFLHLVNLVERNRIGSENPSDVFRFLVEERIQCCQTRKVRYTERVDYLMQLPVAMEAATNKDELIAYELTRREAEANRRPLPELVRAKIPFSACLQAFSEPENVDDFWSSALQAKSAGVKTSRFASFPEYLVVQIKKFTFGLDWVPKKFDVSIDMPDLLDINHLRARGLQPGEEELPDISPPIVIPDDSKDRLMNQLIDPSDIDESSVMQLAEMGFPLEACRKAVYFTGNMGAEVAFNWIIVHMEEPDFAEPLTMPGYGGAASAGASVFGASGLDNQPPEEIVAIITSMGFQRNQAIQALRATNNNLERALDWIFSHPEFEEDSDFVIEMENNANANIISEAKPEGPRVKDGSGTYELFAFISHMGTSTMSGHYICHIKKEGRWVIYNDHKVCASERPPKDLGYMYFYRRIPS
Source text: as §3

The target in a further experiment is USP30 (Homo sapiens (Human), UniProt Q70CQ3). Put plainly: DUB selectivity panel using ubiquitin-AMC. It counts as biochemical. The note with it: 5 μM compound, 500 nM Ubiquitin-AMC.
Source text: as §3

A further experiment addresses USP5 (Homo sapiens (Human), UniProt P45974). Put plainly: DUB selectivity panel using ubiquitin-AMC. It counts as biochemical. The note with it: 5 μM compound, 500 nM Ubiquitin-AMC.
Source text: as §3

Another experiment deals with USP4 (Homo sapiens (Human), UniProt Q13107). Put plainly: DUB selectivity panel using ubiquitin-AMC. It counts as biochemical. The note with it: 5 μM compound, 500 nM Ubiquitin-AMC.
USP4, sequence (Q13107 whole entry): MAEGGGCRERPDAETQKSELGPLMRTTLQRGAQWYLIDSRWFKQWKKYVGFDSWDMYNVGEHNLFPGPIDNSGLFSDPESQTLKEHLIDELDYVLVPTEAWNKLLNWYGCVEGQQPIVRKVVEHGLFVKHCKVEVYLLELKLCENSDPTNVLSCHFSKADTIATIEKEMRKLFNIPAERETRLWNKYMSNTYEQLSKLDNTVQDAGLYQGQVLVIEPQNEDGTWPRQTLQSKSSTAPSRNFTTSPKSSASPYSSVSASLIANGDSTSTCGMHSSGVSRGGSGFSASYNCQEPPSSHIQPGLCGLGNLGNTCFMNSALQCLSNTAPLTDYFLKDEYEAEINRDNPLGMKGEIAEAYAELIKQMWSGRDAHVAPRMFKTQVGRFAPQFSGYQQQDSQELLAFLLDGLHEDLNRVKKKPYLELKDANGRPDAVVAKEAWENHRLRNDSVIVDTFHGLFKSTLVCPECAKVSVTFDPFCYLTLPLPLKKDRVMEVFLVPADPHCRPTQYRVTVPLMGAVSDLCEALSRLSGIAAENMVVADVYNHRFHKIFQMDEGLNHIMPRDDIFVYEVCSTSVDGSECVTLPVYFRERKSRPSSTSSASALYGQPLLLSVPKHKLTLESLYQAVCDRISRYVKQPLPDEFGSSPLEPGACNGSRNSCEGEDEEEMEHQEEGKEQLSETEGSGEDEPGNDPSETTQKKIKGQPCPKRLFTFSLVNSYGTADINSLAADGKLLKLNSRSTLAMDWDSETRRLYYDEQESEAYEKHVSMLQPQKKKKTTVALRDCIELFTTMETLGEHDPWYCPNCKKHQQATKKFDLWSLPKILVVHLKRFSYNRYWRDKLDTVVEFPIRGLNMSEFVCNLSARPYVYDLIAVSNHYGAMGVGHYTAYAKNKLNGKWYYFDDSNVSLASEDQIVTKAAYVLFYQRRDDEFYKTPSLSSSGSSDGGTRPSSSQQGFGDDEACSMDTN
Source text: as §3

The target of the next experiment is USP10 (Homo sapiens (Human), UniProt Q14694). Put plainly: DUB selectivity panel using ubiquitin-AMC. It counts as biochemical. The note with it: 5 μM compound, 500 nM Ubiquitin-AMC.
Source text: as §3

The mark [2] stands for this setting: 5 μM compound, 500 nM Ubiquitin-AMC.

Read-outs that look alike come from different tables or passages of the source.

Usually IC50 stands for the point on the concentration scale where inhibition reaches its midpoint. Usually inhibition stands for how much of the control response was suppressed. Higher therefore signals a strong effect.

USP7, sequence (Q93009 whole entry): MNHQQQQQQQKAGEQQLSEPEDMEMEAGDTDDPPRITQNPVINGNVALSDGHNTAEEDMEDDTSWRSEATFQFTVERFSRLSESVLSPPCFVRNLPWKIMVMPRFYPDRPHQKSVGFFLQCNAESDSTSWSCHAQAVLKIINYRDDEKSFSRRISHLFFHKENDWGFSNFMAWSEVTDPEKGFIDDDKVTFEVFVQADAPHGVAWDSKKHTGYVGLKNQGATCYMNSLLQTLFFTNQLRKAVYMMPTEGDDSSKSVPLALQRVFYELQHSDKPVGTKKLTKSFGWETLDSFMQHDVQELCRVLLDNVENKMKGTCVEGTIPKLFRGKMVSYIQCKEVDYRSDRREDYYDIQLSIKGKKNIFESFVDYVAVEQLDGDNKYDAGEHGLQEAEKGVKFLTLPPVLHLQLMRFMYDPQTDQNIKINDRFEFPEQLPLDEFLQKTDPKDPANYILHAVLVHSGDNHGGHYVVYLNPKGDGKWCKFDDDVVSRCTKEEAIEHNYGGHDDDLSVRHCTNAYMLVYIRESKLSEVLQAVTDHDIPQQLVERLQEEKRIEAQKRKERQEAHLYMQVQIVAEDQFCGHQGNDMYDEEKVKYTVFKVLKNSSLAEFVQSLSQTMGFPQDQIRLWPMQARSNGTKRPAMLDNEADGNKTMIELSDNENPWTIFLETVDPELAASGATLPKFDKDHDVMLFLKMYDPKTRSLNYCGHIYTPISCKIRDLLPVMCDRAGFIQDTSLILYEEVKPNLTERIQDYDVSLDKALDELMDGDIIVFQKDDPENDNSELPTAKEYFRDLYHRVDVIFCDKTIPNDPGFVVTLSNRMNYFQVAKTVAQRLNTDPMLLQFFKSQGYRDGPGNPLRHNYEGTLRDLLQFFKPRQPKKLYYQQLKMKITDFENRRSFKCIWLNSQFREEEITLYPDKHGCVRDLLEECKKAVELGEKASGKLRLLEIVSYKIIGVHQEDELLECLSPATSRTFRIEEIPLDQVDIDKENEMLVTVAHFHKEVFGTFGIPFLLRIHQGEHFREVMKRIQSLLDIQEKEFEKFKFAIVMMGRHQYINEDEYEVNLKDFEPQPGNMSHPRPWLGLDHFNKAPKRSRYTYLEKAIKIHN
USP2, sequence (O75604 whole entry): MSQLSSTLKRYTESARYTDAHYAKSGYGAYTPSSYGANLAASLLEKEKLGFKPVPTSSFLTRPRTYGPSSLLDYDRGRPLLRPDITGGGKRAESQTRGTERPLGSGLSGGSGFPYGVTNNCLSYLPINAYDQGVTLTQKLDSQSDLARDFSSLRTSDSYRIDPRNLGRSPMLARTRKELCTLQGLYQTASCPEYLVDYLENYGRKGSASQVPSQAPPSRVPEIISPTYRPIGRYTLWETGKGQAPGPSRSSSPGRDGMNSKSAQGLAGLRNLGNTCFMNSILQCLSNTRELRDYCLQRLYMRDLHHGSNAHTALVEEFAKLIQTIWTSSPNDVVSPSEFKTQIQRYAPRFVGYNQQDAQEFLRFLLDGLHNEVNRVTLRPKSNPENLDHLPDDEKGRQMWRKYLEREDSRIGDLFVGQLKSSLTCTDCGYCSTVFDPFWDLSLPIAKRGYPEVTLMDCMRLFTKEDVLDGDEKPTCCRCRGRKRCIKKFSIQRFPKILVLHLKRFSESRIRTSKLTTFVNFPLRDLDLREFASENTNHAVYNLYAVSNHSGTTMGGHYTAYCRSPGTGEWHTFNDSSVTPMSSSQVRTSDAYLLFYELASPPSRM
CYLD, sequence (Q9NQC7 whole entry): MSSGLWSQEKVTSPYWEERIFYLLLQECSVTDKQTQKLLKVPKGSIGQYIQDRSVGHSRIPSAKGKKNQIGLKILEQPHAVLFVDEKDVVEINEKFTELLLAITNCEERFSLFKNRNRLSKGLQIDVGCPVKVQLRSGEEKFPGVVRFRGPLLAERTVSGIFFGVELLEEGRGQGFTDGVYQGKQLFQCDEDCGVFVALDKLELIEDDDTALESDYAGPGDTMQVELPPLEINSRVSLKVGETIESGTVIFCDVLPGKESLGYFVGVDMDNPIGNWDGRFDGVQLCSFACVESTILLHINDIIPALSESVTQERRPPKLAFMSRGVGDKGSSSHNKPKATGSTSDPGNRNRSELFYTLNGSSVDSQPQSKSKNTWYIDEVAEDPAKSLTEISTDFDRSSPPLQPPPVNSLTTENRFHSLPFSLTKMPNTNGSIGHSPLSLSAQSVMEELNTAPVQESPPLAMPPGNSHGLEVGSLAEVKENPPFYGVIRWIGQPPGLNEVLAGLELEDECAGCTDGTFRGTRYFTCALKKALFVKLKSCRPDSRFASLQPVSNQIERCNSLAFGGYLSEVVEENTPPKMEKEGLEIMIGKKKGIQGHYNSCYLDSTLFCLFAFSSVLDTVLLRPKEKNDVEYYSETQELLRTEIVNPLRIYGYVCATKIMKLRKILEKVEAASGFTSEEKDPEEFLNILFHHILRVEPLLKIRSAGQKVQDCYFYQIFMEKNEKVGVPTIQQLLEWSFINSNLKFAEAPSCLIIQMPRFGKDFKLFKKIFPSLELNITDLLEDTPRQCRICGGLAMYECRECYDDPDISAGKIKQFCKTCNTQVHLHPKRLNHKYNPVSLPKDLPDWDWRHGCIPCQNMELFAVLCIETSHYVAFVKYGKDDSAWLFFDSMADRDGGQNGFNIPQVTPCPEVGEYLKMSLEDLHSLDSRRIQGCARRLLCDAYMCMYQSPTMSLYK

For `CN1CCOc2ccc(cc2)C(=O)NCc2ccc(F)c(c2)C(=O)N[C@@H](CC(C)(C)C)C(=O)Nc2ccc(cc2)CCN(C)C(=O)CC(C)(C)CC1=O` [Compound 7A], the “IC50 Ratio WP1130/Compound 7A” value in the experiment with BT-549 (BT-549) stood at 27.0. For the same compound, the IC50 in the experiment on BT-549 (BT-549, breast ductal carcinoma) was determined as 0.199 µM; in the experiment with BT-549 (Homo sapiens, BT-549, BT-549, breast ductal carcinoma), 0.2 µM; with U937 cells (read-out: IC50 for the inhibition of U937) it was 0.27 µM; with U937 cells (U937 cells, single agent, read-out: IC50, cell viability) it was 0.27 µM; in the experiment on PA-1, 2.07 µM; in the experiment on VA-ES-BJ it was 0.682 µM. Moreover, the IC50 in the experiment on NCI-H460 is 2.09 µM; in the experiment with SK-N-AS, 1.72 µM; in the experiment with A388, 2.39 µM; in the experiment with MIA PaCa-2, 0.79 µM; in the experiment with DoTc2 4510, 0.963 µM; in the experiment with HCT-116 it was 2.39 µM. In [1], the IC50 was greater than 32 µM. For the same compound, in the experiment with U937 cells (U937 cells, co-treatment of 0.5 μM Compound 7A), the “enhancement in ABT737's potency / sensitivity of cells to ABT737” value is reported as 57 fold. In addition, in the experiment on U937 cells (U937 cells, when Mcl-1 level decreased by 50%), the “cell viability decreased to” value came out at 0. Also, the “cell viability” value with BT-549 cancer cells is on record as “significant decreases”.
`CN1CCOc2ccc(cc2)C(=O)NCc2cccc(c2)C(=O)N[C@@H](CC(C)(C)C)C(=O)Nc2ccc(cc2)CCN(C)C(=O)CC(C)(C)CC1=O` [Compound 5A]: the IC50 at USP7 is greater than 50 µM; against USP28, 15 µM; at USP2, greater than 50 µM. The inhibition at 5 µM against USP7 (setting [2]) is 0%; against VCPIP, less than 3%; against CYLD, 0%; at USP15, less than 2%; on USP2 (setting [2]) it was 0%; on UCH-L3, 0%. The inhibition at 5 µM at USP25 was 0%; at USP13, 0%; at USP30 it was less than 5%; at USP5 it was 0%; on USP4, 0%; against USP10 it was less than 1%. Also, the “inhibition of USP7” value at USP7 (setting [2]) is listed as “no detectable effect”. The “inhibition of CYLD” value against CYLD is “no detectable effect”. Moreover, the “inhibition of USP2” value on USP2 (setting [2]) was “no detectable effect”. Also, the “inhibition of UCH-L3” value against UCH-L3 was “no detectable effect”. In addition, the “inhibition of USP25” value against USP25 is given as “no detectable effect”. The “inhibition of USP13” value on USP13 was “no detectable effect”. Also, the “inhibition of USP5” value on USP5 is on record as “no detectable effect”. Moreover, at USP4, the “inhibition of USP4” value was “no detectable effect”.
